These results are taken from PubChem BioAssay (NCI).

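A five-concentration, 48-hour dose response in 96-well plates underlies each endpoint, interpolated linearly between surrounding concentrations. TGI: concentration producing complete growth inhibition.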

Among the test systems are K-562 leukemia; KM12 colon; KM20L2 colon; M19-MEL melanoma; OVCAR-4 ovarian; SK-MEL-2 melanoma; SK-MEL-5 melanoma; SW-620 colon; UACC-257 melanoma; MDA-MB-435.
Assay in all cases: NCI anticancer screen, dose series, 48 h

In the case of `C=C[C@]1(C)CCC2=C(CCC3C2(C)CCC[C@@]3(C)COC(C)=O)C1` (some centres not stated), the TGI in the test with K-562 leukemia was 33.5 µM; in the test on KM12 colon, 34.7 µM; in the test with KM20L2 colon, 33.5 µM; in the test on M19-MEL melanoma it was 50.8 µM; with OVCAR-4 ovarian, more than 100 µM; in the test on SK-MEL-2 melanoma, 29 µM. Besides, the results for the TGI in the test on SK-MEL-5 melanoma, in the test with SW-620 colon and with UACC-257 melanoma were 31 µM, 35.5 µM and 53 µM, respectively.

On to `O=C1CCSC2=C1SCc1sccc12`, for which the TGI in the test with K-562 leukemia, in the test on KM12 colon, with KM20L2 colon, in the test on M19-MEL melanoma, in the test on OVCAR-4 ovarian and in the test with SK-MEL-2 melanoma was more than 100 µM throughout. Besides, the TGI in the test on SK-MEL-5 melanoma, in the test with SW-620 colon and with UACC-257 melanoma was more than 100 µM each time.

Take `CCNC(=O)O/N=C1\CCC2[C@@H]3CC=C4C[C@@H](OC5CCCCO5)CC[C@]4(C)C3CC[C@]12C` (some centres not stated): the TGI in the test on KM12 colon was 17 µM; in the test with KM20L2 colon, 12.4 µM; with M19-MEL melanoma it was 3.6 µM; in the test with SK-MEL-2 melanoma, 5.68 µM; in the test on SK-MEL-5 melanoma, more than 100 µM; in the test with SW-620 colon, 6.04 µM. The TGI in the test on UACC-257 melanoma stood at 4.41 µM.

Turning to `CC(C)NC(=O)CCN(C(=O)O)S(=O)(=O)c1ccc(NC(=O)c2ccccc2)cc1`, the TGI is more than 64.5 µM in the test with K-562 leukemia; more than 100 µM in the test with KM12 colon; more than 100 µM in the test with KM20L2 colon; more than 89.2 µM in the test with M19-MEL melanoma; more than 100 µM in the test on OVCAR-4 ovarian; more than 100 µM in the test on SK-MEL-2 melanoma. Besides, the TGI in the test with SK-MEL-5 melanoma was more than 100 µM; with SW-620 colon it was more than 52.4 µM; in the test on UACC-257 melanoma, more than 79.3 µM.

In the case of `Cc1ccccc1-n1c2nc(=O)n(C)c(=O)c-2nc2ccccc21`, the TGI turned out to be 43.6 µM in the test on K-562 leukemia; 33.5 µM in the test on KM12 colon; 21.9 µM in the test on KM20L2 colon; 3.84 µM in the test with M19-MEL melanoma; 26.6 µM in the test on OVCAR-4 ovarian; 32.5 µM with SK-MEL-2 melanoma. Moreover, the TGI in the test on SK-MEL-5 melanoma turned out to be 23.1 µM; in the test on SW-620 colon, 28.1 µM; in the test on UACC-257 melanoma, 21.4 µM.

Regarding `Cc1ccc(NC(=O)/C(Cl)=C(/Cl)C(=O)O)cc1`, the TGI amounted to 23.5 µM with K-562 leukemia; 34.6 µM in the test with KM12 colon; 40.3 µM in the test on KM20L2 colon; 29.5 µM in the test with M19-MEL melanoma; 33.1 µM with OVCAR-4 ovarian; 37.6 µM in the test on SK-MEL-2 melanoma. The TGI is 55.2 µM in the test with SK-MEL-5 melanoma, 29.9 µM in the test with SW-620 colon and 44.2 µM with UACC-257 melanoma.

For `CC1(c2ccccc2)CC(c2cccc([N+](=O)[O-])c2)=NO1` (configuration not stated), the TGI with KM12 colon, with M19-MEL melanoma, with OVCAR-4 ovarian, in the test on SK-MEL-2 melanoma, in the test on SK-MEL-5 melanoma and in the test on SW-620 colon was more than 100 µM each time. The TGI in the test with UACC-257 melanoma is more than 100 µM.

As for `Cc1cc(C)nc(NS(=O)(=O)c2ccc(Nc3c4ccc(Cl)cc4nc4c(C(=O)NCCN(C)C)cccc34)cc2)n1`, the TGI in the test on K-562 leukemia, in the test with KM12 colon, in the test on KM20L2 colon, in the test on M19-MEL melanoma, in the test on OVCAR-4 ovarian and in the test with SK-MEL-5 melanoma was more than 100 µM each time. For the same compound, the TGI in the test on SW-620 colon and with UACC-257 melanoma was more than 100 µM each time.

For `COc1ccc(C(=O)C(c2ccc(OCc3ccccc3)cc2)c2ccc(OCc3ccccc3)cc2)cc1`, the TGI in the test with K-562 leukemia, in the test on KM12 colon, in the test on KM20L2 colon, in the test on M19-MEL melanoma, with OVCAR-4 ovarian and in the test with SK-MEL-2 melanoma was more than 100 µM throughout. The TGI in the test with SK-MEL-5 melanoma and in the test on SW-620 colon was more than 100 µM in each case.

In the case of `CC1=CC(N2C(=O)C(C)=CC2O)NC1=O` (configuration not stated), the TGI with KM12 colon, in the test on KM20L2 colon, in the test on M19-MEL melanoma, in the test with OVCAR-4 ovarian, in the test with SK-MEL-2 melanoma and in the test with SW-620 colon was more than 100 µM each time. For the same compound, the TGI with UACC-257 melanoma was more than 100 µM.

Take `Nc1cc(=O)n(-c2ccccc2)c(=S)n1-c1ccccc1`: the TGI in the test on K-562 leukemia, in the test with KM12 colon, with KM20L2 colon, with M19-MEL melanoma, in the test on SK-MEL-2 melanoma and with SK-MEL-5 melanoma was more than 100 µM each time. Also, the TGI with SW-620 colon and in the test with UACC-257 melanoma was more than 100 µM in each case.

As for `O=C(COC(=O)c1cccc2c(=O)c3ccccc3[nH]c12)Nc1ccc(C(=O)O)cc1`, the TGI in the test on K-562 leukemia, with KM12 colon, in the test with KM20L2 colon, with M19-MEL melanoma, in the test with OVCAR-4 ovarian and in the test on SK-MEL-5 melanoma was more than 100 µM each time. The TGI in the test with SW-620 colon and in the test on UACC-257 melanoma was more than 100 µM throughout.

Take `COc1cc2c(cc1OC)C1Cc3cc(OC)c(OC)cc3C(C2)N1C`: the TGI with K-562 leukemia is more than 100 µM; with KM12 colon it was more than 100 µM; in the test on KM20L2 colon it was more than 100 µM; with MDA-MB-435, more than 75 µM; in the test on OVCAR-4 ovarian it was more than 100 µM; with SK-MEL-2 melanoma, more than 100 µM. The TGI in the test with SK-MEL-5 melanoma, with SW-620 colon and in the test on UACC-257 melanoma was more than 100 µM in each case.
